These results are taken from PubChem BioAssay AID651709 (Sanford-Burnham Center for Chemical Genomics, 2012).

This assay addresses Probable nicotinate-nucleotide adenylyltransferase (Staphylococcus aureus (strain N315)) (UniProt P65502). In words: inhibitors of S. aureus NadD, dose response, biochemical, colorimetric, set 2 (AID 651709). Conditions: purified S. aureus NadD, colorimetric enzyme assay.

Molecules are shown by their SMILES.

Sequence of Probable nicotinate-nucleotide adenylyltransferase (Staphylococcus aureus (strain N315)) (P65502 whole entry, looked up): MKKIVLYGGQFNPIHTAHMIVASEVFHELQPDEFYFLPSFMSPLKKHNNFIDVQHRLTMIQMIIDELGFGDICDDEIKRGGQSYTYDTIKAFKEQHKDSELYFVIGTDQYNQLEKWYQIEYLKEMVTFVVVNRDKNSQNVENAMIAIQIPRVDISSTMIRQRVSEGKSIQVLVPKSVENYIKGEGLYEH

Turning to `C[c-]1[c-](C)[c-](C)[c-](C)[c-]1C.[Fe].c1cc2nccc(N3CCCC3)[c-]2c1` (stereo unspecified), the IC50 (usually the concentration that inhibits the measured activity by half) is 50 µM.
